The record followed here is patent publication US11970498B2, “CDK2 inhibitors” (BLUEPRINT MEDICINES CORPORATION, priority 2021, dated 2024).

For one test, the target named is CDK2/Cyclin E (Homo sapiens, UniProt P24941). Briefly: CDK2/Cyclin E biochemical phosphorylation assay (Caliper mobility shift). To be noted: apparent IC50; 1.0 mM ATP or ATP Km; 1.25 nM enzyme; 25° C.; read-out: CDK2/cyclin E1 IC50. On the procedure: (§1) Inhibitory effects of the compounds of the disclosure were measured in biochemical assays that measure the enzymatic phosphorylation activity of CDK enzyme in complex of Cyclin proteins phosphorylates 7.5 micromolar fluorescently labelled peptide substrate, 5-FAM-QSPKKG-CONH2, (FL-Peptide 18, Perkin Elmer, 760362) in the presence of adenosine-5′-triphosphate (ATP) and varying concentrations of the test compound in 100 mM 2-[4-(2-hydroxyethyl)piperazin-1-yl] ethanesulfonic acid (HEPES), pH 7.5, 10 mM MgCl2, 0.015% Brij-35, 1 mM dithiothreitol (DTT), 1.0% dimethylsulfoxide (DMSO). Assays were performed at 1.0 mM ATP or at ATP Km of the CDK enzymes in complex with Cyclin proteins. Reactions proceeded until between 10% to 20% total peptides were phosphorylated at room temperature (25° C.) and were terminated with 35 mM 2,2′,2″,2′″-(ethane-1,2-diyldinitrilo)tetraacetic acid (EDTA). Product was detected using the Caliper mobility shift detection method where the phosphorylated peptide (product) and substrate were electrophoretically separated and measured. Percent activity was plotted against log concentration of compound and points to generate an apparent IC50. The following CDK enzymes in complex with different cyclin proteins were used in these assays: • CDK1/Cyclin B1, GST-tag (BPS, 40454), 1.5 nM used in the assay • CDK2/Cyclin E (Eurofins, 14-475), 1.25 nM used in the assays
(§2) For inhibitory activity against CDK2/Cyclin E mutant, the following designations are used: ≤10 nM=A; >10-20 nM=B; >20-30 nM=C; >30-100 nM=D and >100=E. For inhibition CDK1/Cyclin B1, GST-tag: ≥500 nM=A; <100-500 nM=B; <100 nM=C.

The target in a further test is T1, CDK1/Cyclin B1, GST-tag (Homo sapiens, UniProt P06493).
T1 construct: GST
Briefly: CDK1/Cyclin B1 biochemical phosphorylation assay (Caliper mobility shift). To be noted: apparent IC50; 1.0 mM ATP or ATP Km; 1.5 nM enzyme; 25° C. The protocol:
as §1, §2

T1 sequence (P06493 whole entry): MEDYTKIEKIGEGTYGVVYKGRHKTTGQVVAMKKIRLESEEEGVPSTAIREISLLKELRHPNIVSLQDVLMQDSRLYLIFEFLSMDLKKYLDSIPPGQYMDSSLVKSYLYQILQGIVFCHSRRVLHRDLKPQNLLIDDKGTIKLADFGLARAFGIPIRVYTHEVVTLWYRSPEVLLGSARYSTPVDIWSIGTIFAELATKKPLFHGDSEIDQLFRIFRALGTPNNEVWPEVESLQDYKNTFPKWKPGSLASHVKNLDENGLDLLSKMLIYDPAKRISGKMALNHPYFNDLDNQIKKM
T1 sequence (P14635 whole entry partner): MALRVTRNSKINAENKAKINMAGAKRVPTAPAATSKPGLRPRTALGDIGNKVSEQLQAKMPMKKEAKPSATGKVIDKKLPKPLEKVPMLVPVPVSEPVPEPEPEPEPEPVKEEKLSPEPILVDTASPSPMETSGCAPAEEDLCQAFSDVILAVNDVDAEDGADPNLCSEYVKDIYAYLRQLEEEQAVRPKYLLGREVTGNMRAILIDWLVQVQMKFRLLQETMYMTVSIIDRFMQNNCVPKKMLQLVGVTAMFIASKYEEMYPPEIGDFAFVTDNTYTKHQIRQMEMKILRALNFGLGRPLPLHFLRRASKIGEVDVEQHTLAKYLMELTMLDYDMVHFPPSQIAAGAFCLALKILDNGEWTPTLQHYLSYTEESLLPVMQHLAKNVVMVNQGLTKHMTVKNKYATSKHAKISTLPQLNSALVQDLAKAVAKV

With `FC(F)Oc1cc(Nc2cnc3cnn(CC45CC(F)(C4)C5)c3n2)n[nH]1` [Example 116, N-(5-(difluoromethoxy)-1H-pyrazol-3-yl)-1-((3-fluorobicyclo[1.1.1]pentan-1-yl)methyl)-1H-pyrazolo[3,4-b]pyrazin-6-amine], the IC50 on CDK2/Cyclin E is no more than 10 nM; on CDK1/Cyclin B1, GST-tag, no less than 500 nM.

As for `FC(F)Oc1cc(Nc2cnc3cnn([C@H](C4CCOCC4)C4CC4)c3n2)n[nH]1` (single isomer, unassigned) [Example 157, (S)-1-(cyclopropyl(tetrahydro-2H-pyran-4-yl)methyl)-N-(5-(difluoromethoxy)-1H-pyrazol-3-yl)-1H-pyrazolo[3,4-b]pyrazin-6-amine or (R)-1-(cyclopropyl(tetrahydro-2H-pyran-4-yl)methyl)-N-(5-(difluoromethoxy)-1H-pyrazol-3-yl)-1H-pyrazolo[3,4-b]pyrazin-6-amine], the IC50 on CDK2/Cyclin E was 30 to 100 nM; at CDK1/Cyclin B1, GST-tag it was no less than 500 nM.

Take `FC(F)Oc1cc(Nc2cnc3cnn(CC4CCCCC4)c3n2)n[nH]1` [Example 105, 1-(cyclohexylmethyl)-N-(5-(difluoromethoxy)-1H-pyrazol-3-yl)-1H-pyrazolo[3,4-b]pyrazin-6-amine]: the IC50 at CDK2/Cyclin E is no more than 10 nM; at CDK1/Cyclin B1, GST-tag, 100 to 500 nM.

As for `FC(F)Oc1cc(Nc2cnc3cnn(Cc4cccnn4)c3n2)n[nH]1` [Example 222, N-(5-(difluoromethoxy)-1H-pyrazol-3-yl)-1-(pyridazin-3-ylmethyl)-1H-pyrazolo[3,4-b]pyrazin-6-amine], the IC50 is no more than 10 nM at CDK2/Cyclin E and no less than 500 nM on CDK1/Cyclin B1, GST-tag.

Consider `CC1(C)C[C@H](Cn2ncc3ncc(Nc4cc(OC(F)F)[nH]n4)nc32)C(=O)N1` (single isomer, unassigned) [Example 185, (S)-3-((6-((5-(difluoromethoxy)-1H-pyrazol-3-yl)amino)-1H-pyrazolo[3,4-b]pyrazin-1-yl)methyl)-5,5-dimethylpyrrolidin-2-one or (R)-3-((6-((5-(difluoromethoxy)-1H-pyrazol-3-yl)amino)-1H-pyrazolo[3,4-b]pyrazin-1-yl)methyl)-5,5-dimethylpyrrolidin-2-one], for which the IC50 at CDK2/Cyclin E was 30 to 100 nM; at CDK1/Cyclin B1, GST-tag it was no less than 500 nM.

As for `CC[C@@H]([C@@H](C)O)n1ncc2ncc(Nc3cc(OC(F)F)[nH]n3)nc21` (single isomer, unassigned) [Example 201, (2R,3S)-3-(6-((5-(difluoromethoxy)-1H-pyrazol-3-yl)amino)-1H-pyrazolo[3,4-b]pyrazin-1-yl)pentan-2-ol or (2R,3R)-3-(6-((5-(difluoromethoxy)-1H-pyrazol-3-yl)amino)-1H-pyrazolo[3,4-b]pyrazin-1-yl)pentan-2-ol], the IC50 is greater than 100 nM on CDK2/Cyclin E and no less than 500 nM on CDK1/Cyclin B1, GST-tag.

Consider `C[C@@H](c1cccnc1)n1ncc2ncc(Nc3cc(OC(F)F)[nH]n3)nc21` [Example 1, (S)—N-(5-(difluoromethoxy)-1H-pyrazol-3-yl)-1-(1-(pyridin-3-yl)ethyl)-1H-pyrazolo[3,4-b]pyrazin-6-amine], for which the IC50 on CDK2/Cyclin E is no more than 10 nM; on CDK1/Cyclin B1, GST-tag, 100 to 500 nM.

With `COc1cc(Nc2cnc3cnn([C@@H](C(F)F)C4CCOCC4)c3n2)n[nH]1` (single isomer, unassigned) [Example 192, (R)-1-(2,2-difluoro-1-(tetrahydro-2H-pyran-4-yl)ethyl)-N-(5-methoxy-1H-pyrazol-3-yl)-1H-pyrazolo[3,4-b]pyrazin-6-amine or (S)-1-(2,2-difluoro-1-(tetrahydro-2H-pyran-4-yl)ethyl)-N-(5-methoxy-1H-pyrazol-3-yl)-1H-pyrazolo[3,4-b]pyrazin-6-amine], the IC50 on CDK2/Cyclin E is greater than 100 nM; at CDK1/Cyclin B1, GST-tag, no less than 500 nM.

Turning to `O[C@H]1CC[C@@H](Cn2ncc3ncc(Nc4cc(OC(F)F)[nH]n4)nc32)CC1` (single isomer, unassigned) [Example 172, (1r,4r)-4-((6-((5-(difluoromethoxy)-1H-pyrazol-3-yl)amino)-1H-pyrazolo[3,4-b]pyrazin-1-yl)methyl)cyclohexan-1-ol or (1s,4s)-4-((6-((5-(difluoromethoxy)-1H-pyrazol-3-yl)amino)-1H-pyrazolo[3,4-b]pyrazin-1-yl)methyl)cyclohexan-1-ol], the IC50 on CDK2/Cyclin E was 10 to 20 nM; at CDK1/Cyclin B1, GST-tag, no less than 500 nM.

Regarding `FC(F)Oc1cc(Nc2cnc3cnn([C@H](C(F)F)C4CCOCC4)c3n2)n[nH]1` (single isomer, unassigned) [Example 28, (S)-1-(2,2-difluoro-1-(tetrahydro-2H-pyran-4-yl)ethyl)-N-(5-(difluoromethoxy)-1H-pyrazol-3-yl)-1H-pyrazolo[3,4-b]pyrazin-6-amine or (R)-1-(2,2-difluoro-1-(tetrahydro-2H-pyran-4-yl)ethyl)-N-(5-(difluoromethoxy)-1H-pyrazol-3-yl)-1H-pyrazolo[3,4-b]pyrazin-6-amine], the IC50 at CDK2/Cyclin E is 20 to 30 nM; on CDK1/Cyclin B1, GST-tag, no less than 500 nM.

With `Cc1ncccc1Cn1ncc2ncc(Nc3cc(OC(F)F)[nH]n3)nc21` [Example 95, N-(5-(difluoromethoxy)-1H-pyrazol-3-yl)-1-((2-methylpyridin-3-yl)methyl)-1H-pyrazolo[3,4-b]pyrazin-6-amine], the IC50 at CDK2/Cyclin E was 20 to 30 nM; on CDK1/Cyclin B1, GST-tag, no less than 500 nM.

As to `O[C@H]1CC[C@@H](n2ncc3ncc(Nc4cc(OC(F)F)[nH]n4)nc32)C1` (single isomer, unassigned) [Example 208], the IC50 on CDK2/Cyclin E was no more than 10 nM; at CDK1/Cyclin B1, GST-tag, no less than 500 nM.

In the case of `C[C@@H](O)c1nn(CC2CCOCC2)c2nc(Nc3cc(OC(F)F)[nH]n3)cnc12` (single isomer, unassigned) [Example 176, (S)-1-(6-((5-(difluoromethoxy)-1H-pyrazol-3-yl)amino)-1-((tetrahydro-2H-pyran-4-yl)methyl)-1H-pyrazolo[3,4-b]pyrazin-3-yl)ethan-1-ol or (R)-1-(6-((5-(difluoromethoxy)-1H-pyrazol-3-yl)amino)-1-((tetrahydro-2H-pyran-4-yl)methyl)-1H-pyrazolo[3,4-b]pyrazin-3-yl)ethan-1-ol], the IC50 is no more than 10 nM at CDK2/Cyclin E and 100 to 500 nM on CDK1/Cyclin B1, GST-tag.

For `COc1cc(Nc2cnc3cnn([C@@H](C)C4CCOCC4)c3n2)n[nH]1` [Example 22, (S)—N-(5-methoxy-1H-pyrazol-3-yl)-1-(1-(tetrahydro-2H-pyran-4-yl)ethyl)-1H-pyrazolo[3,4-b]pyrazin-6-amine], the IC50 was no more than 10 nM at CDK2/Cyclin E and 100 to 500 nM on CDK1/Cyclin B1, GST-tag.

With `COc1cc(Nc2cnc3cnn(C[C@H]4C[C@@H]4C#N)c3n2)n[nH]1` (single isomer, unassigned) [Example 196, (1S,2S)-2-((6-((5-methoxy-1H-pyrazol-3-yl)amino)-1H-pyrazolo[3,4-b]pyrazin-1-yl)methyl)cyclopropane-1-carbonitrile or (1R,2R)-2-((6-((5-methoxy-1H-pyrazol-3-yl)amino)-1H-pyrazolo[3,4-b]pyrazin-1-yl)methyl)cyclopropane-1-carbonitrile], the IC50 was greater than 100 nM on CDK2/Cyclin E and no less than 500 nM on CDK1/Cyclin B1, GST-tag.

Regarding `FC(F)Oc1cc(Nc2cnc3cnn(C[C@H]4CCCOC4)c3n2)n[nH]1` (single isomer, unassigned) [Example 141, (R)-N-(5-(difluoromethoxy)-1H-pyrazol-3-yl)-1-((tetrahydro-2H-pyran-3-yl)methyl)-1H-pyrazolo[3,4-b]pyrazin-6-amine or (S)-N-(5-(difluoromethoxy)-1H-pyrazol-3-yl)-1-((tetrahydro-2H-pyran-3-yl)methyl)-1H-pyrazolo[3,4-b]pyrazin-6-amine], the IC50 is no more than 10 nM on CDK2/Cyclin E and no less than 500 nM on CDK1/Cyclin B1, GST-tag.

With `FC(F)Oc1cc(Nc2cnc3cnn([C@@H](c4cccnc4)C4CC4)c3n2)n[nH]1` (single isomer, unassigned) [Example 147, (R)-1-(cyclopropyl(pyridin-3-yl)methyl)-N-(5-(difluoromethoxy)-1H-pyrazol-3-yl)-1H-pyrazolo[3,4-b]pyrazin-6-amine or (S)-1-(cyclopropyl(pyridin-3-yl)methyl)-N-(5-(difluoromethoxy)-1H-pyrazol-3-yl)-1H-pyrazolo[3,4-b]pyrazin-6-amine], the IC50 is no more than 10 nM at CDK2/Cyclin E and no less than 500 nM at CDK1/Cyclin B1, GST-tag.

Regarding `CC[C@@H]([C@H](C)O)n1ncc2ncc(Nc3cc(OC(F)F)[nH]n3)nc21` (single isomer, unassigned) [Example 6, (2S,3S)-3-(6-((5-(difluoromethoxy)-1H-pyrazol-3-yl)amino)-1H-pyrazolo[3,4-b]pyrazin-1-yl)pentan-2-ol or (2S,3R)-3-(6-((5-(difluoromethoxy)-1H-pyrazol-3-yl)amino)-1H-pyrazolo[3,4-b]pyrazin-1-yl)pentan-2-ol], the IC50 at CDK2/Cyclin E is 30 to 100 nM; at CDK1/Cyclin B1, GST-tag, no less than 500 nM.

For the compound `FC(F)Oc1cc(Nc2cnc3cnn(Cc4ccno4)c3n2)n[nH]1` [Example 134, N-(5-(difluoromethoxy)-1H-pyrazol-3-yl)-1-(isoxazol-5-ylmethyl)-1H-pyrazolo[3,4-b]pyrazin-6-amine], the IC50 at CDK2/Cyclin E is 10 to 20 nM; on CDK1/Cyclin B1, GST-tag, no less than 500 nM.
